Test results: ChEMBL document CHEMBL5356978 (Bioorg Med Chem Lett, 2024)
The source made the active and inactive calls. The calls are words filed in the database; no cut-off is given here.

Assays:
[1] = Inhibition of Wnt/beta-catenin signaling pathway in mouse CT26 cells assessed as downregulation of AXIN2 expression incubated for 24 hrs by qPCR analysis; settings: CT26, 24 h
[2] = target: T1, beta-catenin-B-cell lymphoma 9 protein complex (Homo sapiens, UniProt P35222); test: Inhibition of full length beta-catenin (unknown origin)/FAM labeled BCL9 (350 to 375 residues) (unknown origin) protein-protein interaction by competitive FP assay; type: protein-complex assay
T1 sequence (P35222 whole entry): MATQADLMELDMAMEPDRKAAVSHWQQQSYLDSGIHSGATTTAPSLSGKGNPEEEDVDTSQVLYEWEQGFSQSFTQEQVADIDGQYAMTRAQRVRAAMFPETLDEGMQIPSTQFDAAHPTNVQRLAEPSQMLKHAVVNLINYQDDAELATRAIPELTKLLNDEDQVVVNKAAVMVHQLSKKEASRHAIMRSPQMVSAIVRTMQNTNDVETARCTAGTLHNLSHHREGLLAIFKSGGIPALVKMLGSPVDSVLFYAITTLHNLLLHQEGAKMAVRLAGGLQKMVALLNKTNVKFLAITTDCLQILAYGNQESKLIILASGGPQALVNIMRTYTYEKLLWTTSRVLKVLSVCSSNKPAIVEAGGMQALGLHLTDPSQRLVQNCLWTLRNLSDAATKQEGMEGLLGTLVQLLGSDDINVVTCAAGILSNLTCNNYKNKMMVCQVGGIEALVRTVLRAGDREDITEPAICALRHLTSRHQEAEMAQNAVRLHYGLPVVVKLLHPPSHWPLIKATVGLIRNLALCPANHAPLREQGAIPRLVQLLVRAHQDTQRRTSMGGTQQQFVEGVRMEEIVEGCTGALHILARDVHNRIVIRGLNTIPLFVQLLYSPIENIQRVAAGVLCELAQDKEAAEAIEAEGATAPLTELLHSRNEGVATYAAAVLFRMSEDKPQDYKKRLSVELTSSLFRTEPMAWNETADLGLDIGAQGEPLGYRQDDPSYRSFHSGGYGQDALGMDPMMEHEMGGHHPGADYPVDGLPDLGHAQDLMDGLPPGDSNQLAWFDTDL
T1 sequence (O00512 whole entry): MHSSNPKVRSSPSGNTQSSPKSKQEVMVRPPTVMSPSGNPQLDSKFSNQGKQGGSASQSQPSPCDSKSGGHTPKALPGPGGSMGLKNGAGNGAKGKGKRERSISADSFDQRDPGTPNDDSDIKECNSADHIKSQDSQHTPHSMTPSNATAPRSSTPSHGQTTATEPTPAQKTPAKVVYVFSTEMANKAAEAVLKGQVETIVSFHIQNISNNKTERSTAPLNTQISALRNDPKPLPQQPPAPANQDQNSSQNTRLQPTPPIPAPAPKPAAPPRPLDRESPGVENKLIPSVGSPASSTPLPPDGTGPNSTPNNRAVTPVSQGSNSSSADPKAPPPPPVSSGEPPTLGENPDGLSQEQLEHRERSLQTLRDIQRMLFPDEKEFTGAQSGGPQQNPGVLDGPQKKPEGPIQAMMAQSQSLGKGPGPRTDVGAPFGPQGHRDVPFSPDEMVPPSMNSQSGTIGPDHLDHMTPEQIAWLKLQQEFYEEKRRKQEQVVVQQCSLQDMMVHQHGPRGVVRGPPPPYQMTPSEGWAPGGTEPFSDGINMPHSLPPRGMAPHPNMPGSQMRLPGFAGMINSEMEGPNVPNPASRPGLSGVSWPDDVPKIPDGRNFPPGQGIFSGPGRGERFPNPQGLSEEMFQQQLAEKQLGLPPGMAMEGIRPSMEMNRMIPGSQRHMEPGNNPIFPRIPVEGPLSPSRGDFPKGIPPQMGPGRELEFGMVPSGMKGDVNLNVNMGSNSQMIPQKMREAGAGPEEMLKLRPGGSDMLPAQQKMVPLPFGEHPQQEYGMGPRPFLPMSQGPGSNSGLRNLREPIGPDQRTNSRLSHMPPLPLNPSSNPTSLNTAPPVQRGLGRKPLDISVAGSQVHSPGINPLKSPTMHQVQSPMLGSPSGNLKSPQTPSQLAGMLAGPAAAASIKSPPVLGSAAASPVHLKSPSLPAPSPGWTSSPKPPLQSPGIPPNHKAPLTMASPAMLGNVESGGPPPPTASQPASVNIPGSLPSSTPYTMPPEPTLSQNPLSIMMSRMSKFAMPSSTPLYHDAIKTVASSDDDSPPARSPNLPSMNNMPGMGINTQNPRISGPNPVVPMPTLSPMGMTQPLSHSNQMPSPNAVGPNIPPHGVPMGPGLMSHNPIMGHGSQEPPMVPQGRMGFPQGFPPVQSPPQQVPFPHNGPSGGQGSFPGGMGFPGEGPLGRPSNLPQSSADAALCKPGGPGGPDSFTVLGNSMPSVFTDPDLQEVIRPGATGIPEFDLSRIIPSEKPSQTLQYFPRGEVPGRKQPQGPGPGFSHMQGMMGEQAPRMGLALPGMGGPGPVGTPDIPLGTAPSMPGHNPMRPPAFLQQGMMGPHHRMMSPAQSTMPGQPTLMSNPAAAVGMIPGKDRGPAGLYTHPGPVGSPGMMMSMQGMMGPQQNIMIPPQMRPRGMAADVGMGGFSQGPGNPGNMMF

[3] = test system: CT26; test: Antiproliferative activity against mouse CT26 cells harboring active Wnt/beta-catenin signal assessed as inhibition of cell proliferation by CCK8 assay
[4] = cells; settings: Homo sapiens, HCT-116, 24 h
Description: Inhibition of Wnt pathway in human HCT-116 cells assessed as inhibition of Auxin2 expression incubated for 24 hrs by qPCR analysis

[5] = test system: CT26; test: Antitumor activity against mouse CT26 cells implanted in mouse assessed as tumor growth inhibition at 15 mg/kg, ip administered for 7 days relative to control; type: functional; settings: CT26, 168 h, time 7 day, read-out: TGI
[6] = test system: CT26; test: Induction of apoptosis in mouse CT26 cells at 20 uM incubated for 24 hrs by annexin V-FITC/PI staining based flow cytometry analysis relative to control; type: functional
[7] = test system: CT26; test: Antimigratory activity in mouse CT26 cells assessed as reduction in cell migration incubated for 24 hrs by transwell assay; type: functional, cell-based; settings: dose 5-20 µM
[8] = Inhibition of Wnt/beta-catenin signaling transactivation in human HCT-116 cells assessed as reduction in downstream nuclear transcription ability by TCF/LEF reporter assay
[9] = test system: CT26; test: Induction of apoptosis in mouse CT26 cells at 5 uM incubated for 24 hrs by annexin V-FITC/PI staining based flow cytometry analysis relative to control; type: functional
[10] = Toxicity in mouse implanted with mouse CT26 cells assessed as reduction in body weight at 15 mg/kg, ip administered for 7 days and measured for 11 days; type: organism-based; settings: in vivo, 168 h, time 7 day
[11] = test system: HCT-116; test: Antiproliferative activity against human HCT-116 cells assessed as inhibition of cell proliferation by CCK8 assay
[12] = […] Colorectal cancer cells (unknown origin) assessed as regulation of immune microenvironment by measuring granzyme B positive cells at 5 to 10 uM incubated for 24 hrs by flow cytometry analysis (reference value: 16.2%); type: functional; parameters: scale not given: the % may be the effect or the level left; settings: dose 5-10 µM
[13] = test system: CT26; test: Antitumor activity against mouse CT26 cells implanted in mouse assessed as reduction in tumor size at 15 mg/kg, ip administered for 7 days; type: functional, organism-based; settings: time 7.0 day
[14] = test system: CT26; test: Induction of apoptosis in mouse CT26 cells assessed as increase in late apoptotic cells at 5 to 20 uM incubated for 24 hrs by annexin V-FITC/PI staining based flow cytometry analysis; type: functional, cell-based; settings: dose 5-20 µM

SMILES | IC50 [1] | IC50 [2] | IC50 [3] | other results
O=c1c(O)c(-c2ccc(O)c(O)c2)oc2c(-c3ccc(F)c(F)c3)c(O)cc(O)c12 | 1450 nM | 3.15 µM | 7.1 µM | –
COc1ccc(-c2oc3c(-c4ccc(C(F)(F)F)cc4)c(OC)cc(OC)c3c(=O)c2OC)cc1OC | 9200 nM | 8.81 µM | 16.2 µM | –
COC(=O)c1ccc(-c2c(O)cc(O)c3c(=O)c(O)c(-c4ccc(O)c(O)c4)oc23)cc1 | 5050 nM | 2.99 µM | 15.1 µM | –
COc1ccc(-c2oc3c(-c4ccccc4)c(OC)cc(OC)c3c(=O)c2OC)cc1OC | 1110 nM | 12.1 µM | 15.1 µM | –
COc1ccc(-c2oc3c(C4=CCNCC4)c(OC)cc(OC)c3c(=O)c2OC)cc1OC | 1060 nM | 8.92 µM | 12.9 µM | –
COc1ccc(-c2oc3c(-c4ccc(C)cc4)c(OC)cc(OC)c3c(=O)c2OC)cc1OC | 1970 nM | 5.24 µM | 11.4 µM | –
COc1ccc(-c2oc3c(-c4ccncc4)c(OC)cc(OC)c3c(=O)c2OC)cc1OC | 3100 nM | 2.75 µM | 14.2 µM | –
O=c1c(O)c(-c2ccc(O)c(O)c2)oc2cc(O)cc(O)c12 [QUERCETIN] | 7700 nM | – | – | IC50 [4]: 9.95 µM; inhibition in vivo at 15 mg/kg [5]: 43.1%; Activity [6]: 23.89%; Activity [7]: Dose-Dependent Effect; IC50 [8]: 4870 nM; Activity [9]: 17.36%; Activity [10]: Non-Toxic; IC50 [11]: 11.4 µM
COc1ccc(-c2oc3c(C4CC4)c(OC)cc(OC)c3c(=O)c2OC)cc1OC | 2040 nM | 20 µM | 3.39 µM | –
COc1ccc(-c2oc3c(-c4ccc(C(=O)O)cc4)c(OC)cc(OC)c3c(=O)c2OC)cc1OC | 10400 nM | 4.52 µM | 14.1 µM | –
COc1ccc(-c2oc3c(-c4ccc(F)cc4)c(OC)cc(OC)c3c(=O)c2OC)cc1OC | 4570 nM | 6.93 µM | 19.8 µM | –
O=c1c(O)c(-c2ccc(O)c(O)c2)oc2c(-c3ccc(F)cc3)c(O)cc(O)c12 | 800 nM | 2.35 µM | 3.32 µM | –
COc1ccc(-c2oc3c(-c4ccc(F)c(F)c4)c(OC)cc(OC)c3c(=O)c2OC)cc1OC | 12000 nM | 5.78 µM | 32.1 µM | –
COc1ccc(-c2oc3c(Nc4ccccc4)c(OC)cc(OC)c3c(=O)c2OC)cc1OC | 1090 nM | 16.2 µM | 2.49 µM | –
Cc1ccc(-c2c(O)cc(O)c3c(=O)c(O)c(-c4ccc(O)c(O)c4)oc23)cc1 | 760 nM | – | 1.69 µM | IC50 [4]: 4.02 µM; inhibition in vivo at 15 mg/kg [5]: 76%; Activity [12]: 44.5%; Activity [13]: Active; Activity [14]: Active; Activity [6]: 34.03%; Activity [7]: Dose-Dependent Effect; IC50 [8]: 760 nM; Activity [9]: 29.11%; Activity [10]: Non-Toxic; IC50 [11]: 1.7 µM
O=c1c(O)c(-c2ccc(O)c(O)c2)oc2c(-c3ccccc3)c(O)cc(O)c12 | 1310 nM | 3.83 µM | 3.32 µM | –
COc1ccc(-c2c(OC)cc(OC)c3c(=O)c(OC)c(-c4ccc(OC)c(OC)c4)oc23)cc1 | 1140 nM | 17.3 µM | 27.8 µM | –
COC(=O)c1ccc(-c2c(OC)cc(OC)c3c(=O)c(OC)c(-c4ccc(OC)c(OC)c4)oc23)cc1 | 12000 nM | 7.64 µM | 16 µM | –
